The values that follow come from ChEMBL document CHEMBL1133635, “Caspases as targets for anti-inflammatory and anti-apoptotic drug discovery” (J Med Chem, 2000).

The structures appear in SMILES notation. Where a SMILES comes first, the peptide text is derived from it. [ ]: non-standard residue; d: D form. ξ: configuration not given here. ξE = NC(CCC(=O)O)C(=O)O; βAla = NCCC(=O)O

The first test concerns the target T1, Caspase-3 (Homo sapiens, UniProt P42574).
T1 sequence (P42574 whole entry): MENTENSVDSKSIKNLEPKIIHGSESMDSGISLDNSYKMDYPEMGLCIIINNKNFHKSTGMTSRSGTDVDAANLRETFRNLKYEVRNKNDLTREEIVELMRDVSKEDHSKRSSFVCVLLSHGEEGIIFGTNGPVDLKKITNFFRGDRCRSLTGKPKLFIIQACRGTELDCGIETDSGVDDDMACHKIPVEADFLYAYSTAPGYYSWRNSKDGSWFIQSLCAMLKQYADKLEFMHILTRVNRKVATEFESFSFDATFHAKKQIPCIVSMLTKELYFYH
In words: Evaluated for the dissociation constant for the inhibition of caspase-3. The conditions noted are these: read-out: Ki app.
Take `CN1C(=O)C(=O)c2cc(S(=O)(=O)N3CCC[C@H]3COc3ccccc3)ccc21`: the Ki came to 15 nM.

The target in a further test is T2, Caspase-7 (Homo sapiens, UniProt P55210).
T2 sequence (P55210 whole entry): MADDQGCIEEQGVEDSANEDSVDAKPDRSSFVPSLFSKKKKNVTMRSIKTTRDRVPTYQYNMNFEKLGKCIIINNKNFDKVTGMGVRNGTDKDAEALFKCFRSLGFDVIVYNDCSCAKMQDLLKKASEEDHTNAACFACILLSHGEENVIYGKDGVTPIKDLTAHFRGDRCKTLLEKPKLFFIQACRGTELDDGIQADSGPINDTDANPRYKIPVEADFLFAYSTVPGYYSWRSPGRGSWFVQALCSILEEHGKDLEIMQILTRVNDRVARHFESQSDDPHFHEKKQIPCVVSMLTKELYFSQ
The test can be described thus: Evaluated for kinetic dissociation constant […] for the inhibition of caspase-7. The settings on record: read-out: Ki app.
In the case of `CN1C(=O)C(=O)c2cc(S(=O)(=O)N3CCC[C@H]3COc3ccccc3)ccc21`, the Ki was 47 nM.

In a further test the target is T3, Caspase-1 (Homo sapiens) (UniProt P29466).
T3 sequence (whole entry): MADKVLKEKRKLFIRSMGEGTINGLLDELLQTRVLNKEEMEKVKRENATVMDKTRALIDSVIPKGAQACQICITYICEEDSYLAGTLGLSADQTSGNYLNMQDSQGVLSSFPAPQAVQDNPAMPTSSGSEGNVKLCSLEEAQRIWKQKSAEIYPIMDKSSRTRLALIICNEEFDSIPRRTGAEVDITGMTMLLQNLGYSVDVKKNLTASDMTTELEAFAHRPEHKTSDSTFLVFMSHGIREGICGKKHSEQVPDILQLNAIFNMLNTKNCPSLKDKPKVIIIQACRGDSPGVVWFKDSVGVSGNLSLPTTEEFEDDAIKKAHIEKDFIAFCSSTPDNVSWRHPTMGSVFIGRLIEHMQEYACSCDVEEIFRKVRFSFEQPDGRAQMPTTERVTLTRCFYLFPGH
Settings: not given
For the molecule `CC(=O)N[C@@H](Cc1ccc(O)cc1)C(=O)N[C@H](C(=O)N[C@@H](C)C(=O)NC(C=O)CC(=O)O)C(C)C` (stereo partly drawn), the k on is 380000 M⁻¹ s⁻¹.

In a further test the target is T4, Caspase-1 (Homo sapiens, UniProt P29466).
T4 sequence (P29466 whole entry): T3 sequence (whole entry)
The test can be described thus: Dissociation constant for inhibition of caspase-1.
Settings: not given
`CC(=O)N[C@@H](Cc1ccc(O)cc1)C(=O)N[C@H](C(=O)N[C@@H](C)C(=O)NCCC(=O)O)C(C)C` (Ac-YVA[βAla]-OH) yielded a Ki of 200000 nM.
As to `CC(=O)N[C@@H](Cc1ccc(O)cc1)C(=O)N[C@H](C(=O)N[C@@H](C)C(=O)NC(C=O)CC(=O)O)C(C)C` (stereo partly drawn), the Ki was found to be 0.76 nM.
The molecule `O=C[C@H](CC(=O)O)NS(=O)(=O)c1ccccc1OCCc1cccc2ccccc12` had a Ki of 62 nM.
The molecule `O=C[C@H](CC(=O)O)NC(=O)[C@@H]1Cc2cccc3c2N1C(=O)[C@@H](NC(=O)c1cccc2ccccc12)CC3` returned a Ki of 10 nM.
Still for that read-out and setting: the result for `CC(C)[C@H](NC(=O)c1ccc2ccccc2c1)C(=O)N1CCC[C@H]1C(=O)NC(C=O)CC(=O)NS(C)(=O)=O` (stereo partly drawn) reads 38 nM.
Still for that read-out and setting: the result for `CC(=O)N[C@@H](Cc1ccc(O)cc1)C(=O)N[C@H](C(=O)N[C@@H](C)C(=O)N[C@@H](CC(=O)O)C(=O)C(=O)NCCc1ccccc1)C(C)C` reads 9 nM.
Same read-out and setting: the result for `O=C[C@H](CC(=O)O)NC(=O)C1CCC2CCC(NC(=O)OCc3ccccc3)C(=O)N21` (stereo partly drawn) reads 36 nM.
`CC(=O)N[C@@H](Cc1ccc(O)cc1)C(=O)N[C@H](C(=O)N1CC(O)C[C@H]1C(=O)NC(C=O)CC(=O)O)C(C)C` (stereo partly drawn): the Ki was 2 nM.
The molecule `CC(=O)N[C@@H](Cc1ccc(O)cc1)C(=O)N[C@H](C(=O)N[C@@H](C)C(=O)NC(C=O)CCC(=O)O)C(C)C` (stereo partly drawn) (Ac-YVA[ξE]-aldehyde) returned a Ki of 9 nM.
Still for that read-out and setting: the result for `CC(C)[C@H](NC(=O)OCc1ccccc1)C(=O)N[C@@H](C)C(=O)NC(CC(=O)O)C(=O)COc1ccc2ccc(=O)oc2c1` (stereo partly drawn) reads 17 nM.

For a further test, the target named is T4, Caspase-1. The test can be described thus: Compound was evaluated for the inhibitory activity against caspase-1.
Settings: not given
The IC50 is the midpoint of a concentration-inhibition curve. Lower therefore signals greater potency. With `CCCCC(C(=O)N[C@@H](CC(=O)O)C(=O)COc1ccccc1)n1cncc(NC(=O)c2cccc3ccccc23)c1=O` (stereo partly drawn), half-maximal inhibition (IC50) was put at 46 nM.
As for `CC(C)[C@H](NC(=O)OCc1ccccc1)C(=O)N[C@@H](C)C(=O)N[C@@H](CC(=O)O)C(=O)c1nc(-c2ccccc2)c[nH]1`, the Ki was found to be 6300 nM.
Turning to `CC[C@@H](C(=O)NC(CC(=O)O)C(=O)CNCCc1ccccc1)n1cccc(NC(=O)c2ccc3ccccc3c2)c1=O` (stereo partly drawn), the midpoint of inhibition, the IC50, lay at 0.37 nM.
The molecule `CC(C)[C@H](NC(=O)OCc1ccccc1)C(=O)N[C@@H](C)C(=O)N[C@@H](CC(=O)O)C(=O)c1ncc(-c2ccccc2)o1` yielded a Ki of 240 nM.
The molecule `O=C(O)C[C@H](NC(=O)C(c1ccccc1)n1cccc(NC(=O)c2cccc3ccccc23)c1=O)C(=O)COc1ccccc1` (stereo partly drawn) registered an IC50 of 10 nM.
With `CC(C)[C@H](NC(=O)OCc1ccccc1)C(=O)N[C@@H](C)C(=O)N[C@@H](CC(=O)O)C(=O)c1ncc[nH]1`, the Ki was determined as 8800 nM.
In the case of `CC(C)[C@H](NC(=O)OCc1ccccc1)C(=O)N[C@@H](C)C(=O)NC(CC(=O)O)C(=O)COC(=O)CCc1ccccc1` (stereo partly drawn), the IC50 was found to be 1.9 nM.
On the same count and under the same terms, the result for `CC(=O)N[C@@H](Cc1ccc(O)cc1)C(=O)N[C@H](C(=O)N[C@@H](C)C(=O)NC(CC(=O)O)C(=O)CCCCCc1ccccc1)C(C)C` (stereo partly drawn) reads 18.5 nM; that for `CC(C)[C@H](CC(=O)NCCc1cn(C)c2ccccc12)C(=O)NC(CC(=O)O)C(=O)CNS(=O)(=O)CC12CCC(CC1=O)C2(C)C` (stereo partly drawn), 0.4 nM.
In the case of `CC(C)[C@H](NC(=O)OCc1ccccc1)C(=O)N[C@@H](C)C(=O)N[C@@H](CC(=O)O)C(=O)c1nccs1`, the Ki was 10000 nM.
In turn, `CC(C)[C@H](NC(=O)c1ccccc1)C(=O)N(CC(=O)NC(CC(=O)O)C(=O)c1nc2ccccc2o1)C1Cc2ccccc2C1` (stereo partly drawn) came in with a half-inhibitory concentration (IC50) of 2 nM.
`CC(C)[C@H](NC/C=C/c1ccccc1)C(=O)N1CC(O)C[C@H]1C(=O)NC(CC(=O)O)C(=O)COc1ccccc1` (stereo partly drawn) showed a half-inhibitory concentration (IC50) of 13 nM.
`CC(C)[C@H](NC(=O)OCc1ccccc1)C(=O)N[C@@H](C)C(=O)N[C@@H](CC(=O)O)C(=O)c1ncco1`: the Ki worked out at 13000 nM.
Consider `CC(C)[C@H](NC(=O)OCc1ccccc1)C(=O)N[C@@H](C)C(=O)NC(CC(=O)O)C(=O)COc1cc2ccccc2cc1C(N)=O` (stereo partly drawn), for which it took 1.7 nM to reach half-maximal inhibition (IC50).

The next test has as its target T3, Caspase-1 (Homo sapiens).
Settings: not given
This is another data set of the same source.
In the case of `CC(C)[C@H](NC(=O)OCc1ccccc1)C(=O)N[C@@H](C)C(=O)NC(CC(=O)O)C(=O)COc1cc2ccccc2cc1C(N)=O` (stereo partly drawn), the k on was 430000 M⁻¹ s⁻¹.
